Laboratory results reported in patent publication US20160075653A1, “NEMATICIDAL N-(PHENYLCYCLOALKYL)CARBOXAMIDES AND N-(PHENYLCYCLOALKYL)THIOCARBOXAMIDES” (BAYER CROPSCIENCE AKTIENGESELLSCHAFT, priority 2013, published 2016).
Where two headings read alike, the source gives them in different places.

Tests used:
[1] = Measurement of log P values by HPLC on reversed phase columns (methods [a] pH 2.3, [b] pH 2.7, [c] pH 7.8); type: physicochemical; settings: for chromatographic logP: reversed phase HPLC columns
Summary of the method: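 Determined per EEC Directive 79/831 Annex V.A8 by reversed-phase HPLC, 10-95% acetonitrile gradient: [a] pH 2.3, 0.1% phosphoric acid; [b] LC-MS, pH 2.7, 0.1% formic acid; [c] LC-MS, pH 7.8, 0.001 molar ammonium hydrogen carbonate. Calibrated with C3-C16 alkan-2-ones by retention-time interpolation.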

Meloidogyne incognita = Meloidogyne incognita test (MELGIN), gall formation on salad seedlings; type: in vivo; settings: application rate 20 ppm, after 14 days
Description: Meioidovnve incomita—Test (MELGIN)
Solvent: 125.0 parts by weight of acetone
To produce a suitable preparation of active compound, 1 part by weight of active compound is mixed with the stated amount of solvent, and the concentrate is diluted with water to the desired concentration.
Vessels are filled with sand, a solution of the active ingredient, a suspension containing eggs and larvae of the southern root-knot nematode (Meloidogyne incognita) and salad seeds. The salad seeds germinate and the seedlings grow. Galls develop in the roots.
After 14 days the nematicidal activity is determined on the basis of the percentage of gall formation. 100% means that no galls were found; 0% means the number of galls found on the roots of the treated plants was equal to that in untreated control plants.

[2] = HPLC on reversed phase columns, method [b], pH 2.7
[3] = HPLC reversed phase, method [b] (pH 2.7)
[4] = pH 2.7, HPLC on reversed phase columns, method [b] (pH 2.7), read-out: logP

CSc1ccccc1C(=O)N[C@@H]1CCC[C@@H]1c1ccc(F)c(F)c1 (relative stereo) [Compound 82]
logP [1, 2]: 3.35^[b]
nematicidal activity (percentage of gall formation; 100% = no galls) (Meloidogyne incognita): 90%

CCCOc1ccccc1C(=O)N[C@@H]1CCC[C@@H]1c1ccc(F)c(F)c1 (relative stereo) [Compound 86]
logP [1, 2]: 4.19^[b]
nematicidal activity (percentage of gall formation; 100% = no galls) (Meloidogyne incognita): 90%

CCOc1ccccc1C(=O)N[C@@H]1CCC[C@@H]1c1ccc(F)c(F)c1 (relative stereo) [Compound 115]
logP [1, 2]: 3.80^[b]
nematicidal activity (percentage of gall formation; 100% = no galls) (Meloidogyne incognita): 90%

O=C(N[C@@H]1CC[C@@H]1c1ccccc1Cl)c1ncccc1Cl (relative stereo) [Compound 247, cis-3-chloro-N-[2-(2-chlorophenyl)cyclobutyl]pyridine-2-carboxamide]
chromatographic logP ([1]; HPLC-MS, method letter not given, read-out: log P): 2.79
chromatographic logP ([1]; pH 2.7, HPLC reversed phase, method [b] (pH 2.7), read-out: logP): 2.79
nematicidal activity (percentage of gall formation; 100% = no galls) (Meloidogyne incognita): 100%

O=C(N[C@@H]1CC[C@@H]1c1ccccc1Cl)c1ccccc1Cl (relative stereo) [Compound 248]
logP [1, 3]: 3.08^[b]
nematicidal activity (percentage of gall formation; 100% = no galls) (Meloidogyne incognita): 90%

O=C(N[C@@H]1CC[C@@H]1c1ccccc1Cl)c1ccccc1I (relative stereo) [Compound 250]
logP [1, 3]: 3.23^[b]
nematicidal activity (percentage of gall formation; 100% = no galls) (Meloidogyne incognita): 100%

O=C(N[C@@H]1CC[C@@H]1c1ccccc1Cl)c1ccccc1C(F)(F)F (relative stereo) [Compound 251]
logP [1, 3]: 3.23^[b]
nematicidal activity (percentage of gall formation; 100% = no galls) (Meloidogyne incognita): 100%

O=C(N[C@@H]1CC[C@@H]1c1ccccc1Cl)c1c(F)cccc1F (relative stereo) [Compound 252]
logP [1, 3]: 2.86^[b]
nematicidal activity (percentage of gall formation; 100% = no galls) (Meloidogyne incognita): 100%

O=C(N[C@@H]1CC[C@@H]1c1ccccc1Cl)c1ccccc1Br (relative stereo) [Compound 253]
logP [1, 3]: 3.18^[b]
nematicidal activity (percentage of gall formation; 100% = no galls) (Meloidogyne incognita): 100%

O=C(N[C@@H]1CC[C@@H]1c1ccccc1Cl)c1cccnc1C(F)(F)F (relative stereo) [Compound 254]
logP [1, 3]: 2.69^[b]
nematicidal activity (percentage of gall formation; 100% = no galls) (Meloidogyne incognita): 90%

O=C(N[C@@H]1CC[C@H]1c1ccc(Cl)cc1Cl)c1ccccc1Cl (relative stereo) [Compound 256]
logP [1, 3]: 3.90^[b]
nematicidal activity (percentage of gall formation; 100% = no galls) (Meloidogyne incognita): 90%

O=C(N[C@@H]1CC[C@@H]1c1ccc(Cl)cc1Cl)c1ncccc1Cl (relative stereo) [Compound 260]
logP [1, 3]: 3.28^[b]
nematicidal activity (percentage of gall formation; 100% = no galls) (Meloidogyne incognita): 100%

O=C(N[C@@H]1CC[C@@H]1c1ccc(Cl)cc1Cl)c1ccccc1Cl (relative stereo) [Compound 261]
logP [1, 3]: 3.45^[b]
nematicidal activity (percentage of gall formation; 100% = no galls) (Meloidogyne incognita): 100%

O=C(N[C@@H]1CC[C@H]1c1ccc(F)cc1C(F)(F)F)c1cccnc1C(F)(F)F (relative stereo) [Compound 487]
logP [1, 3]: 3.20^[b]
nematicidal activity (percentage of gall formation; 100% = no galls) (Meloidogyne incognita): 90%

O=C(N[C@@H]1CC[C@@H]1c1ccc(F)cc1C(F)(F)F)c1cccnc1C(F)(F)F (relative stereo) [Compound 489]
logP [1, 3]: 3.02^[b]
nematicidal activity (percentage of gall formation; 100% = no galls) (Meloidogyne incognita): 100%

O=C(N[C@@H]1CC[C@@H]1c1ccc(F)cc1C(F)(F)F)c1ccccc1Br (relative stereo) [Compound 491]
logP [1, 3]: 3.39^[b]
nematicidal activity (percentage of gall formation; 100% = no galls) (Meloidogyne incognita): 100%

O=C(N[C@@H]1CC[C@@H]1c1ccc(F)cc1C(F)(F)F)c1c(F)cccc1F (relative stereo) [Compound 493]
logP [1, 3]: 3.18^[b]
nematicidal activity (percentage of gall formation; 100% = no galls) (Meloidogyne incognita): 100%

O=C(N[C@@H]1CC[C@H]1c1ccc(F)cc1C(F)(F)F)c1ccccc1C(F)(F)F (relative stereo) [Compound 494]
logP [1, 3]: 3.72^[b]
nematicidal activity (percentage of gall formation; 100% = no galls) (Meloidogyne incognita): 90%

O=C(N[C@@H]1CC[C@@H]1c1ccc(F)cc1C(F)(F)F)c1ccccc1C(F)(F)F (relative stereo) [Compound 495]
logP [1, 3]: 3.51^[b]
nematicidal activity (percentage of gall formation; 100% = no galls) (Meloidogyne incognita): 100%

O=C(N[C@@H]1CC[C@H]1c1ccc(F)cc1C(F)(F)F)c1ccccc1Br (relative stereo) [Compound 501]
logP [1, 3]: 3.64^[b]
nematicidal activity (percentage of gall formation; 100% = no galls) (Meloidogyne incognita): 100%

O=C(N[C@@H]1CC[C@@H]1c1ccc(F)cc1C(F)(F)F)c1ccccc1I (relative stereo) [Compound 503]
logP [1, 3]: 3.50^[b]
nematicidal activity (percentage of gall formation; 100% = no galls) (Meloidogyne incognita): 100%

O=C(N[C@@H]1CC[C@@H]1c1ccc(F)cc1C(F)(F)F)c1ccccc1 (relative stereo) [Compound 505]
logP [1, 3]: 2.97^[b]
nematicidal activity (percentage of gall formation; 100% = no galls) (Meloidogyne incognita): 90%

O=C(N[C@@H]1CC[C@@H]1c1ccc(F)cc1C(F)(F)F)c1ccccc1Cl (relative stereo) [Compound 509]
logP [1, 3]: 3.34^[b]
nematicidal activity (percentage of gall formation; 100% = no galls) (Meloidogyne incognita): 100%

O=C(N[C@@H]1CC[C@@H]1c1ccc(F)cc1C(F)(F)F)c1cccnc1Cl (relative stereo) [Compound 515]
logP [1, 3]: 2.73^[b]
nematicidal activity (percentage of gall formation; 100% = no galls) (Meloidogyne incognita): 100%

O=C(N[C@@H]1CC[C@@H]1c1ccc(F)cc1C(F)(F)F)c1nccnc1Cl (relative stereo) [Compound 516]
logP [1, 3]: 2.89^[b]
nematicidal activity (percentage of gall formation; 100% = no galls) (Meloidogyne incognita): 100%

O=C(N[C@@H]1CC[C@@H]1c1ccc(F)cc1C(F)(F)F)c1ccccc1[N+](=O)[O-] (relative stereo) [Compound 522]
logP [1, 3]: 3.04^[b]
nematicidal activity (percentage of gall formation; 100% = no galls) (Meloidogyne incognita): 90%

O=C(N[C@@H]1CC[C@@H]1c1ccc(F)cc1C(F)(F)F)c1cccnc1 (relative stereo) [Compound 523]
logP [1, 3]: 2.18^[b]
nematicidal activity (percentage of gall formation; 100% = no galls) (Meloidogyne incognita): 90%

O=C(N[C@@H]1CC[C@@H]1c1cc(F)ccc1C(F)(F)F)c1ccccc1Cl (relative stereo) [Compound 528]
logP [1, 3]: 3.34^[b]
nematicidal activity (percentage of gall formation; 100% = no galls) (Meloidogyne incognita): 100%

O=C(N[C@@H]1C[C@@H]1c1ccc(Cl)cc1)c1nccnc1C(F)(F)F (relative stereo) [Compound 532]
logP [1, 3]: 2.68^[b]
logP ([1]; HPLC reversed phase, method [c] pH 7.8): 2.65^[c];
nematicidal activity (percentage of gall formation; 100% = no galls) (Meloidogyne incognita): 100%

O=C(N[C@@H]1CC[C@@H]1c1c(F)cccc1C(F)(F)F)c1ncccc1Cl (relative stereo) [Compound 537]
logP [1, 3]: 2.92^[b]
nematicidal activity (percentage of gall formation; 100% = no galls) (Meloidogyne incognita): 100%

O=C(N[C@@H]1CC[C@@H]1c1ccccc1Cl)c1ccccc1[N+](=O)[O-] (relative stereo) [Compound 538]
logP [1, 3]: 2.71^[b]
nematicidal activity (percentage of gall formation; 100% = no galls) (Meloidogyne incognita): 100%

O=C(N[C@@H]1CC[C@@H]1c1cc(F)ccc1C(F)(F)F)c1ccccc1[N+](=O)[O-] (relative stereo) [Compound 540]
logP [1, 3]: 3.07^[b]
nematicidal activity (percentage of gall formation; 100% = no galls) (Meloidogyne incognita): 100%

O=C(N[C@@H]1CC[C@@H]1c1cc(F)ccc1C(F)(F)F)c1ccccc1I (relative stereo) [Compound 541]
logP [1, 3]: 3.52^[b]
nematicidal activity (percentage of gall formation; 100% = no galls) (Meloidogyne incognita): 100%

O=C(N[C@@H]1CC[C@@H]1c1c(F)cccc1C(F)(F)F)c1ccccc1I (relative stereo) [Compound 542]
logP [1, 3]: 3.96^[b]
nematicidal activity (percentage of gall formation; 100% = no galls) (Meloidogyne incognita): 100%

O=C(NC1CC1c1ccccc1)c1cccnc1C(F)F (stereo not shown) [Compound 225]
nematicidal activity (percentage of gall formation; 100% = no galls) (Meloidogyne incognita): 90%

O=C(N[C@@H]1CC[C@@H]1c1c(Cl)cccc1Cl)c1ccc(Cl)cc1Cl [Example 741]
chromatographic logP [1, 4]: 4.1

O=C(N[C@@H]1CC[C@@H]1c1c(Cl)cccc1Cl)c1ccccc1Cl [Example 742]
chromatographic logP [1, 4]: 3.56

O=C(N[C@@H]1CC[C@@H]1c1c(Cl)cccc1Cl)c1ncccc1Cl [Example 743]
chromatographic logP [1, 4]: 3.32

O=C(N[C@@H]1CC[C@@H]1c1c(Cl)cccc1Cl)c1ncc(C(F)(F)F)cc1Cl [Example 744]
chromatographic logP [1, 4]: 4.28

O=C(N[C@@H]1CC[C@@H]1c1c(Cl)cccc1Cl)c1sccc1I [Example 745]
chromatographic logP [1, 4]: 4.21

O=C(N[C@@H]1CC[C@@H]1c1c(Cl)cccc1Cl)c1cccnc1C(F)(F)F [Example 746]
chromatographic logP [1, 4]: 2.95

Cc1nc(C(F)(F)F)c(C(=O)N[C@@H]2CCC[C@@H]2c2ccc(C(F)(F)F)cc2)s1 [Example 747]
chromatographic logP [1, 4]: 3.71

O=C(N[C@@H]1CCC[C@@H]1c1ccc(C(F)(F)F)cc1)c1nccnc1Cl [Example 748]
chromatographic logP [1, 4]: 3.2

O=C(N[C@@H]1C[C@]1(F)c1ccc(Cl)cc1)c1sccc1I [Example 749]
chromatographic logP [1, 4]: 3.15

O=C(N[C@@H]1C[C@]1(F)c1ccc(Cl)cc1)c1ccccc1Br [Example 751]
chromatographic logP [1, 4]: 2.84

O=C(N[C@@H]1C[C@]1(F)c1ccc(Cl)cc1)c1ccccc1Cl [Example 752]
chromatographic logP [1, 4]: 2.78

O=C(N[C@@H]1C[C@]1(F)c1ccc(Cl)cc1)c1ccccc1I [Example 753]
chromatographic logP [1, 4]: 2.98

O=C(NC1CC1(F)c1ccc(Cl)cc1)c1ccccc1C(F)(F)F (stereo not shown) [Example 754]
logP [1, 2]: 3.24^[b]

O=C(NC1CC1(F)c1ccc(Cl)cc1)c1ccccc1C(F)(F)F (stereo not shown) [Example 755]
logP [1, 2]: 3.03^[b]
